By GI50 is commonly meant the concentration at which growth is held to half of that of the control.

Structures are written as SMILES.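 In this assay, cells in 96-well plates receive the compound at five concentrations for 48 hours. Endpoints are linearly interpolated between the surrounding concentrations. Abbreviation: GI50, concentration required for 50% inhibition of growth.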 The source made the active and inactive calls. Rule as the data show it: active = GI50 up to about 1.1 µM and inactive = higher.

These results are taken from ChEMBL document CHEMBL1201862, “PubChem BioAssay data set” (2004).

Some test systems named below: UO-31; PC-3; BT-549; NCI-H522; A498; U-251; ACHN; UACC-62; EKVX; DU-145; M19-MEL; MCF7; NCI/ADR-RES; HT-29; HCC 2998; HL-60; Malme-3M; A549; IGROV-1; CAKI-1.
What all share (assay): DTP human tumour cell line panel, 48 h

As for `CC(=O)NNc1nc(C)c(C(=O)NNC(=O)C(=O)Nc2nc3ccc([N+](=O)[O-])cc3s2)s1`, the GI50 is 33.2 µM (inactive) in the assay with UO-31; 26.9 µM (inactive) in the assay on PC-3; 45.8 µM (inactive) with BT-549; 18.7 µM (inactive) in the assay on NCI-H522; 33.6 µM (inactive) with A498; 47.5 µM (inactive) in the assay with U-251. Further, the GI50 in the assay with ACHN was 50.4 µM (inactive); in the assay on UACC-62 it was 51.6 µM (inactive); in the assay on EKVX it was 30.7 µM (inactive); with DU-145 it was 70.1 µM (inactive); with M19-MEL, 45.5 µM (inactive); in the assay with MCF7 it was 31 µM (inactive). The GI50 with NCI/ADR-RES is 53.5 µM (inactive); in the assay with HT-29, 54.7 µM (inactive); with HCC 2998 it was 42.1 µM (inactive); with HL-60, 36.8 µM (inactive); in the assay with Malme-3M it was 35 µM (inactive); with A549 it was 67.1 µM (inactive). Also, the GI50 in the assay with IGROV-1 is 36.9 µM (inactive); with CAKI-1, 30.5 µM (inactive).
For `C=CCOCCCC(=O)C(=[N+]=[N-])C(=O)OC`, the GI50 with UO-31, in the assay on NCI-H522, in the assay with A498, with U-251, in the assay with ACHN and with UACC-62 was > 100 µM (inactive) in each case. Also, the GI50 in the assay with DU-145, in the assay on M19-MEL, with HT-29, in the assay on HCC 2998, in the assay with HL-60 and in the assay on Malme-3M was > 100 µM (inactive) throughout. Moreover, the GI50 in the assay with A549, in the assay on IGROV-1 and in the assay on CAKI-1 was > 100 µM (inactive) each time.
As for `C=C1C(=O)OC2CC(C)C3C=CC(=O)C3CC12` (stereo not drawn), the GI50 was 2.9 µM (inactive) with UO-31; 2.37 µM (inactive) in the assay with PC-3; 2.64 µM (inactive) in the assay on BT-549; 0.61 µM (active) in the assay on NCI-H522; 11.5 µM (inactive) in the assay on A498; 6.76 µM (inactive) in the assay on U-251. For the same molecule, the GI50 in the assay with ACHN was 3.08 µM (inactive); with UACC-62 it was 1.71 µM (inactive); in the assay with EKVX it was 12.1 µM (inactive); in the assay on DU-145 it was 5.41 µM (inactive); with M19-MEL, 2.72 µM (inactive); with HT-29 it was 1.72 µM (inactive). The GI50 was 4.73 µM (inactive) in the assay with HCC 2998; 0.891 µM (active) in the assay on HL-60; 2.05 µM (inactive) with Malme-3M; 7.93 µM (inactive) in the assay with A549; 3.62 µM (inactive) with IGROV-1; 2.17 µM (inactive) in the assay on CAKI-1.
